Experimental data from patent US10435406B2, “6,7-cyclicmorphinan derivatives and use thereof” (Purdue Pharma L.P., priority 2014, dated 2019).

Experiments:
Format in all cases: biochemical
[1] = target: T1, κ opioid receptor (Homo sapiens (Human), UniProt P41145); assay: κ-opioid receptor [35S]GTPγS functional assay (U-2 OS); details: for Emax: U2OS, GTPγS, relative to U69,593
Procedure: (§1) Functional [^35S]GTPγS binding assays were conducted as follows. K opioid receptor membrane solution was prepared by sequentially adding final concentrations of 0.026 μg/μl membrane protein (in-house), 10 μg/mL saponin, 3 μM GDP and 0.20 nM [^35S]GTPγS to binding buffer (100 mM NaCl, 10 mM MgCl2, 20 mM HEPES, pH 7.4) on ice. The prepared membrane solution (190 μl/well) was transferred to 96-shallow well polypropylene plates containing 10 μl of 20× concentrated stock solutions of agonist prepared in DMSO. Plates were incubated for 30 min at a temperature of about 25° C. with shaking. Reactions were terminated by rapid filtration onto 96-well Unifilter GF/B filter plates (Perkin Elmer, Shelton, Conn.) using a 96-well tissue harvester (Packard) and followed by three filtration washes with 200 μl ice-cold binding buffer (10 mM NaH2PO4, 10 mM Na2HPO4, pH 7.4). Filter plates were subsequently dried at 50° C. for 2-3 hours. Fifty μl/well scintillation cocktail (Perkin Elmer, Shelton, Conn.) was added and plates were counted in a Packard Top-Count for 1 min/well.
(§2) GTP EC50 is the concentration of a compound providing 50% of the maximal response for the compound at a κ receptor.
(§3) κ GTP Emax (%) is the maximal effect elicited by a compound relative to the effect elicited by U69,593.
(§4) In TABLE 4, activity response of certain Compounds of the Invention to the μ- and κ-opioid receptors was determined as described above for functional assays using U-2 OS cells.

[2] = target: T2, μ-opioid receptor (Homo sapiens (Human), UniProt P35372); assay: μ-opioid receptor [35S]GTPγS functional assay (U-2 OS); details: for Emax: U2OS, GTPγS, relative to DAMGO
Procedure: (§5) [^35S]GTPγS functional assays were conducted using freshly thawed μ-receptor membranes prepared in-house from a cell line expressing recombinant μ opioid receptor in a HEK-293, CHO or U-2 OS cell background, or purchased from a commercial source (Perkin Elmer, Shelton, Conn.; or DiscovRx, Fremont, Calif.). Assay reactions were prepared by sequentially adding the following reagents to binding buffer (100 mM NaCl, 10 mM MgCl2, 20 mM HEPES, pH 7.4) on ice (final concentrations indicated): membrane protein (0.026 mg/mL), saponin ([…]), GDP ([…]) and [^35S]GTPγS (0.20 nM; Perkin Elmer, Shelton, Conn.). The prepared membrane solution (190 μl/well) was transferred to 96-shallow well polypropylene plates containing 10 μl of 20× concentrated stock solutions of the agonist [D-Ala^2, N-methyl-Phe^4 Gly-ol^5]-enkephalin (DAMGO) prepared in dimethyl sulfoxide (DMSO). Plates were incubated for […] at about 25° C. with shaking. Reactions were terminated by rapid filtration onto 96-well Unifilter GF/B filter plates (Perkin Elmer, Shelton, Conn.) using a 96-well tissue harvester (Perkin Elmer, Shelton, Conn.) followed by three filtration washes with 200 μl of ice-cold wash buffer (10 mM NaH2PO4, 10 mM Na2HPO4, pH 7.4). Filter plates were subsequently dried at 50° C. for 2-3 hours. BetaScint scintillation cocktail (Perkin Elmer, Shelton, Conn.) was added (50 μl/well) and plates were counted using a Packard Top-Count for 1 min/well. Data were analyzed using the sigmoidal dose-response curve fitting functions in GraphPad PRISM v. 3.0, or an in-house function for non-linear, sigmoidal dose-response curve-fitting.
(§6) μ GTP EC50 is the concentration of a compound providing 50% of the maximal response for the compound at a μ-opioid receptor.
(§7) μ GTP Emax (%) is the maximal effect elicited by a compound relative to the effect elicited by DAMGO, a standard agonist. Generally, the μ GTP Emax (%) value measures the efficacy of a compound to treat or prevent pain or other Conditions.
as §4

[3] = target: T2, μ-opioid receptor; assay: μ-opioid receptor [35S]GTPγS functional assay (HEK); details: for Emax: relative to DAMGO
Procedure: as §5, §6, §7
(§8) In TABLE 3, activity response of certain Compounds of the Invention to the μ- and κ-opioid receptors was determined as described above for functional assays using HEK cells.

[4] = target: T1, κ opioid receptor; assay: κ-opioid receptor [35S]GTPγS functional assay (HEK); details: for Emax: HEK, GTPγS, relative to U69,593
Procedure: as §1, §2, §3, §8

`COc1ccc2c(c1)[C@]13CCN(C)[C@H](C2)[C@]1(O)CC1=CC(=O)N[C@H]1C3` [Compound 2, (6R,6aS,10aS,11aR)-6a-hydroxy-2-methoxy-14-methyl-5,6,6a,7,10a,11-hexahydro-6,11a-(epiminoethano)naphtho[2,1-f]indol-9(10H)-one] was tested. Which EC50 [1] did it give?
The EC50 was > 20000 nM.

What about the Emax [1] of the same compound?
The Emax was 84.7 ± 2.73%.

And the EC50 [2]?
The EC50 was 738 ± 59 nM.

And the Emax [2]?
Its Emax is 103.3 ± 0.67%.

And the EC50 [3]?
The EC50 was 12.3 ± 0.615 µM.

And the Emax ([3]; HEK, GTPγS)?
The Emax was 51.8 ± 0.39%.

How did the EC50 [1] turn out when `COc1ccc2c(c1)[C@]13CCN(C)[C@H](C2)[C@]1(O)C[C@H]1CC(=O)N[C@H]1C3` [Compound 3, (6R,6aS,7aS,10aS,11aR)-6a-hydroxy-2-methoxy-14-methyl-5,6,6a, 7,7a,8,10a,11-octahydro-6,11a-(epiminoethano)naphtho[2,1-f]indol-9(10H)-one] was run?
The EC50 was > 20000 nM.

And the Emax [1]?
Its Emax is 108 ± 9.39%.

What about the EC50 [2] of the same compound?
The EC50 was 92.9 ± 6.03 nM.

And the Emax [2]?
Its Emax is 102.7 ± 0.67%.

What about the EC50 [4] of the same compound?
Its EC50 is 18800 ± 4870 nM.

What about the Emax [4] of the same compound?
The Emax was 52 ± 6.11%.

And the EC50 [3]?
The EC50 was 2.28 µM.

What about the Emax ([3]; HEK, GTPγS) of the same compound?
Its Emax is 106 ± 0.58%.

Which EC50 [3] does the source give for `O=C1C[C@@H]2C[C@@]3(O)[C@H]4Cc5ccc(O)cc5[C@@]3(CCN4CCCc3ccccc3)C[C@@H]2N1` [Compound 4, (6R,6aS,7aS,10aS,11aR)-2,6a-dihydroxy-14-(3-phenylpropyl)-5,6,6a,7,7a,8,10a,11-octahydro-6,11a-(epiminoethano)naphtho[2,1-f]indol-9(10H)-one] here?
The EC50 was 0.321 ± 0.0206 µM.

What about the Emax ([3]; HEK, GTPγS) of the same compound?
The Emax was 47.3 ± 7.26%.

Which EC50 [3] does the source give for `O=C1C[C@@H]2C[C@@]3(O)[C@H]4Cc5ccc(O)cc5[C@@]3(CCN4CC3CCOCC3)C[C@@H]2N1` [Compound 6, (6R,6aS,7aS,10aS,11aR)-2,6a-dihydroxy-14-((tetrahydro-2H-pyran-4-yl)methyl)-5,6,6a,7,7a,8,10a,11-octahydro-6,11a-(epiminoethano)naphtho[2,1-f]indol-9(10H)-one] here?
The EC50 was 1.47 µM.

And the Emax ([3]; HEK, GTPγS)?
The Emax was 7.33 ± 0.88%.

What does the source list for `O=C1C[C@@H]2C[C@@]3(O)[C@H]4Cc5ccc(O)cc5[C@@]3(CCN4CC[C@@]3(c4ccccn4)CCOC4(CCCC4)C3)C[C@@H]2N1` [Compound 7, (6R,6aS,7aS,10aS,11aR)-2,6a-dihydroxy-14-(2-((R)-9-(pyridin-2-yl)-6-oxaspiro-[4.5]decan-9-yl)ethyl)-5,6,6a,7,7a,8,10a,11-octahydro-6,11a-(epiminoethano)-naphtho[2,1-f]indol-9(10H)-one]?
EC50 ([3]; HEK, GTPγS, bound given in μM, read-out: μ EC50): > 20 µM; Emax ([3]; HEK, GTPγS): 4.5%

What does the source list for `COc1ccc2c(c1)[C@]13CCN(CC4CC4)[C@H](C2)[C@]1(O)CC1=CC(=O)NC1C3` (stereo partly drawn) [Compound 8, (6R,6aS,11aR)-14-(cyclopropylmethyl)-6a-hydroxy-2-methoxy-5,6,6a,7,10a,11-hexahydro-6,11a-(epiminoethano)naphtho[2,1-f]indol-9(10H)-one]?
EC50 [1]: 585 ± 29.3 nM; Emax [1]: 115 ± 3.53%; EC50 [2]: 846 ± 72.5 nM; Emax [2]: 49 ± 1%; EC50 [4]: 1750 ± 197 nM; Emax [4]: 66.7 ± 1.33%; EC50 [3]: > 20 µM; Emax ([3]; HEK, GTPγS): -0.33 ± 0.67%

Which EC50 [1] does the source give for `CCN1C(=O)C[C@@H]2C[C@@]3(O)[C@H]4Cc5ccc(OC)cc5[C@@]3(CCN4CC3CC3)C[C@@H]21` [Compound 11, (6R,6aS,7aS,10aS,11aR)-14-(cyclopropylmethyl)-10-ethyl-6a-hydroxy-2-methoxy-5,6,6a,7,7a,8,10a,11-octahydro-6,11a-(epiminoethano)naphtho[2,1-f]indol-9(10H)-one] here?
Its EC50 is 16.9 ± 1.96 nM.

And the Emax [1]?
Its Emax is 107 ± 3.94%.

And the EC50 [2]?
Its EC50 is 204 ± 11.2 nM.

And the Emax [2]?
Its Emax is 78 ± 3%.

And the EC50 [3]?
Its EC50 is 0.625 ± 0.0326 µM.

And the Emax ([3]; HEK, GTPγS)?
Its Emax is 36.4 ± 2.23%.

Which EC50 [4] does the source give for `CN1C(=O)C[C@@H]2C[C@@]3(O)[C@H]4Cc5ccc(O)cc5[C@@]3(CCN4CC3CC3)C[C@@H]21` [Compound 12, (6R,6aS,7aS,10aS,11aR)-14-(cyclopropylmethyl)-2,6a-dihydroxy-10-methyl-5,6,6a,7,7a,8,10a,11-octahydro-6,11a-(epiminoethano)naphtho[2,1-f]indol-9(10H)-one] here?
The EC50 was 0.66 ± 0.014 nM.

What about the Emax [4] of the same compound?
Its Emax is 106 ± 6.78%.

And the EC50 [3]?
Its EC50 is 0.00218 ± 2.1e-05 µM.

And the Emax ([3]; HEK, GTPγS)?
Its Emax is 29.3 ± 0.33%.

Which results are given for `COc1ccc2c(c1)[C@]13CCN(CC4CC4)[C@H](C2)[C@]1(O)C[C@H]1CC(=O)N(CC(C)C)[C@H]1C3` [Compound 13, (6R,6aS,7aS,10aS,11aR)-14-(cyclopropylmethyl)-6a-hydroxy-10-isobutyl-2-methoxy-5,6,6a,7,7a,8,10a,11-octahydro-6,11a-(epiminoethano)naphtho[2,1-f]indol-9(10H)-one]?
EC50 [1]: 19.5 ± 1.37 nM; Emax [1]: 106 ± 2.4%; EC50 [2]: 82.2 ± 1.71 nM; Emax [2]: 55 ± 2%; EC50 [3]: 0.224 ± 0.0346 µM; Emax ([3]; HEK, GTPγS): 13.2 ± 1.39%

With `COc1ccc2c(c1)[C@]13CCN(CC4CC4)[C@H](C2)[C@]1(O)C[C@H]1CC(=O)N(CC2CC2)[C@H]1C3` [Compound 14, (6R,6aS,7aS,10aS,11aR)-10,14-bis(cyclopropylmethyl)-6a-hydroxy-2-methoxy-5,6,6a,7,7a,8,10a,11-octahydro-6,11a-(epiminoethano)naphtho[2,1-f]indol-9(10H)-one] as the compound, how does the EC50 [1] read?
Its EC50 is 16.6 ± 1.93 nM.

What about the Emax [1] of the same compound?
Its Emax is 101.8 ± 0.63%.

What about the EC50 [2] of the same compound?
Its EC50 is 49.5 ± 3.87 nM.

What about the Emax [2] of the same compound?
Its Emax is 43.7 ± 4.7%.

What about the EC50 [3] of the same compound?
The EC50 was 0.146 ± 0.0211 µM.

And the Emax ([3]; HEK, GTPγS)?
The Emax was 13.2 ± 0.95%.

How did the EC50 [1] turn out when `COc1ccc2c(c1)[C@]13CCN(CC4CC4)[C@H](C2)[C@]1(O)C[C@H]1CC(=O)N(C)[C@H]1C3` [Compound 15, (6R,6aS,7aS,10aS,11aR)-14-(cyclopropylmethyl)-6a-hydroxy-2-methoxy-10-methyl-5,6,6a,7,7a,8,10a,11-octahydro-6,11a-(epiminoethano)naphtho[2,1-f]indol-9(10H)-one] was run?
The EC50 was 113 ± 36.3 nM.

What about the Emax [1] of the same compound?
The Emax was 129 ± 5%.

And the EC50 [2]?
The EC50 was 349 ± 26.3 nM.

And the Emax [2]?
Its Emax is 75 ± 3%.

What about the EC50 [3] of the same compound?
The EC50 was 0.863 ± 0.0697 µM.

What about the Emax ([3]; HEK, GTPγS) of the same compound?
The Emax was 23.6 ± 2.32%.

With `O=C1C[C@@H]2C[C@@]3(O)[C@H]4Cc5ccc(O)cc5[C@@]3(CCN4CC3CC3)C[C@@H]2N1CC1CC1` [Compound 17, (6R,6aS,7aS,10aS,11aR)-10,14-bis(cyclopropylmethyl)-2,6a-dihydroxy-5,6,6a,7,7a,8,10a,11-octahydro-6,11a-(epiminoethano)-naphtho[2,1-f]indol-9(10H)-one] as the compound, how does the EC50 [3] read?
Its EC50 is > 20 µM.

What about the Emax ([3]; HEK, GTPγS) of the same compound?
Its Emax is 1%.

For `O=C1C=C2C[C@@]3(O)[C@H]4Cc5ccc(O)cc5[C@]3(C=C2N1CC1CC1)CCN4CC1CC1` [Compound 18, (6R,6aS,11aR)-10,14-bis(cyclopropylmethyl)-2,6a-dihydroxy-5,6,6a,7-tetrahydro-6,11a-(epiminoethano)naphtho[2,1-f]indol-9(10H)-one], which EC50 [3] is on record?
The EC50 was > 20 µM.

And the Emax ([3]; HEK, GTPγS)?
Its Emax is 6%.

For `COc1ccc2c(c1)[C@]13CCN(C)[C@H](C2)[C@]1(O)C[C@@H]1NC(=O)O[C@@H]1C3` [Compound 19, (6R,6aS,7aS,10aR,11aR)-6a-hydroxy-2-methoxy-14-methyl-5,6,6a,7,7a,8,10a,11-octahydro-9H-6,11a-(epiminoethano)phenanthro[2,3-d]oxazol-9-one], which EC50 [3] is on record?
The EC50 was > 20 µM.

What about the Emax ([3]; HEK, GTPγS) of the same compound?
Its Emax is 2 ± 0.58%.

Which EC50 [3] does the source give for `CN1CC[C@]23C[C@@H]4OC(=O)N[C@H]4C[C@@]2(O)[C@H]1Cc1ccc(O)cc13` [Compound 20, (6R,6aS,7aS,10aS,11aR)-2,6a-dihydroxy-14-methyl-5,6,6a,7,7a,8,10a,11-octahydro-9H-6,11a-(epiminoethano)phenanthro[2,3-d]oxazol-9-one] here?
The EC50 was 1.31 µM.

And the Emax ([3]; HEK, GTPγS)?
The Emax was 12.4 ± 0.77%.
